Source: US9353107B2 (Aurigene Discovery Technologies Limited, priority 2012, dated 2016)
Where a name gives a salt, the structure may show the parent alone.

Target: T1, recombinant human ALK enzyme (ALK WT) (Homo sapiens, UniProt Q9UM73)
T1 construct: purchased Carna Biosciences 08-518
Test: ALK WT cell free enzymatic assay (TR-FRET)
Assay type: biochemical
Conditions: 1 μM ATP; for IC50: 10 point dose response; for inhibition at 0.1 µM: compound at 100 nM; for inhibition at 0.1 µM / inhibition at 1 µM: 30 min pre-incubation; for inhibition at 1 µM: compound at 1 μM
Summary of the method: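 Read-out is TR-FRET (665 nm/615 nm ratio) using an Eu-labeled anti-phosphotyrosine antibody. Compound is pre-incubated 30 min with recombinant human ALK, then reacted 30 min with 1 μM ATP and 40 nM Poly GT substrate. Values are percent inhibition at 100 nM and 1 μM, plus IC50 from 10-point variable-slope regression.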

T1 sequence (Q9UM73 1058-1620 limits assumed): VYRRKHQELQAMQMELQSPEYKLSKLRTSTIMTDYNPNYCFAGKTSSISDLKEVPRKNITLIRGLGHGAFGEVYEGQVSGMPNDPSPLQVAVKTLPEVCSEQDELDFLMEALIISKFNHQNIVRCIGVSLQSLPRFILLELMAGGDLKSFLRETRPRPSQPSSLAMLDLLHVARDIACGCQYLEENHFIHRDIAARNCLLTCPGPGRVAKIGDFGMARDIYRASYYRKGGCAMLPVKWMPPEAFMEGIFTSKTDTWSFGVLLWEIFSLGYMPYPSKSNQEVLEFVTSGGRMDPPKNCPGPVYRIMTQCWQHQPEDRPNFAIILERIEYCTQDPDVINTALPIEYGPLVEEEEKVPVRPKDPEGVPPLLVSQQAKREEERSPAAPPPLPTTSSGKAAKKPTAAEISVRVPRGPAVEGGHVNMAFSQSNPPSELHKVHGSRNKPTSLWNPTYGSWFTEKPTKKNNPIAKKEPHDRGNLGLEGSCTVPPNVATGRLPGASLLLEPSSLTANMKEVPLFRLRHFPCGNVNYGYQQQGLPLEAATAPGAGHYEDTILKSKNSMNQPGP

Structure (SMILES) | IC50 [nM] | inhibition at 0.1 µM [%] | inhibition at 1 µM [%]
Fc1cccc(Cn2cc(-c3c[nH]c4ncc(-c5ccc(C6CCNCC6)cc5)cc34)cn2)c1 [Example 82, 3-(1-(3-fluorobenzyl)-1H-pyrazol-4-yl)-5-(4-(piperidin-4-yl)phenyl)-1H-pyrrolo[2,3-b]pyridine] | < 50 | 99 | 100
C[C@H](O)CN1CCC(c2ccc(-c3cnc4[nH]cc(-c5cnn(Cc6cccc(F)c6)c5)c4c3)cc2)CC1 [Example 82A, (S)-1-(4-(4-(3-(1-(3-fluorobenzyl)-1H-pyrazol-4-yl)-1H-pyrrolo[2,3-b]pyridin-5-yl)phenyl)piperidin-1-yl)propan-2-ol] | < 50 | 96 | 98
CN1CCC(c2ccc(-c3cnc4[nH]cc(-c5cnn(Cc6cccc(F)c6)c5)c4c3)cc2)CC1 [Example 83, 3-(1-(3-fluorobenzyl)-1H-pyrazol-4-yl)-5-(4-(1-methylpiperidin-4-yl)phenyl)-1H-pyrrolo[2,3-b]pyridine] | < 50 | 96 | 100
Fc1cccc(Cn2cc(-c3c[nH]c4ncc(-c5ccc(C6CCNCC6)c(F)c5)cc34)cn2)c1 [Example 84, 5-(3-fluoro-4-(piperidin-4-yl)phenyl)-3-(1-(3-fluorobenzyl)-1H-pyrazol-4-yl)-1H-pyrrolo[2,3-b]pyridine] | < 50 | 98 | 100
Cc1cccc(Cn2cc(-c3c[nH]c4ncc(-c5ccc(C6CCNCC6)cc5)cc34)cn2)c1 [Example 85, 3-(1-(3-methylbenzyl)-1H-pyrazol-4-yl)-5-(4-(piperidin-4-yl)phenyl)-1H-pyrrolo[2,3-b]pyridine] | < 50 | 95 | 100
COc1cc(-c2cnc3[nH]cc(-c4cnn(Cc5cccc(F)c5)c4)c3c2)ccc1C1CCNCC1 [Example 86, 3-(1-(3-fluorobenzyl)-1H-pyrazol-4-yl)-5-(3-methoxy-4-(piperidin-4-yl)phenyl)-1H-pyrrolo[2,3-b]pyridine] | < 50 | 96 | 98
COc1cccc(Cn2cc(-c3c[nH]c4ncc(-c5ccc(C6CCNCC6)cc5)cc34)cn2)c1 [Example 87, 3-(1-(3-methoxybenzyl)-1H-pyrazol-4-yl)-5-(4-(piperidin-4-yl)phenyl)-1H-pyrrolo[2,3-b]pyridine] | < 50 | 84 | 99
c1ccc(CCn2cc(-c3c[nH]c4ncc(-c5ccc(C6CCNCC6)cc5)cc34)cn2)cc1 [Example 88, 3-(1-phenethyl-1H-pyrazol-4-yl)-5-(4-(piperidin-4-yl)phenyl)-1H-pyrrolo[2,3-b]pyridine] | < 50 | 89 | 99
c1cncc(Cn2cc(-c3c[nH]c4ncc(-c5ccc(C6CCNCC6)cc5)cc34)cn2)c1 [Example 89, 5-(4-(piperidin-4-yl)phenyl)-3-(1-(pyridin-3-ylmethyl)-1H-pyrazol-4-yl)-1H-pyrrolo[2,3-b]pyridine] | < 50 | 84 | 98
Cc1nn(Cc2cccc(F)c2)cc1-c1c[nH]c2ncc(-c3ccc(C4CCNCC4)cc3)cc12 [Example 90, 3-(1-(3-fluorobenzyl)-3-methyl-1H-pyrazol-4-yl)-5-(4-(piperidin-4-yl)phenyl)-1H-pyrrolo[2,3-b]pyridine] | < 50 | 97 | 100
Cc1c(-c2c[nH]c3ncc(-c4ccc(C5CCNCC5)cc4)cc23)cnn1Cc1cccc(F)c1 [Example 91, 3-(1-(3-fluorobenzyl)-5-methyl-1H-pyrazol-4-yl)-5-(4-(piperidin-4-yl)phenyl)-1H-pyrrolo[2,3-b]pyridine] | < 50 | 99 | 100
Cc1nn(Cc2cccc(F)c2)c(C)c1-c1c[nH]c2ncc(-c3ccc(C4CCNCC4)cc3)cc12 [Example 92, 3-(1-(3-fluorobenzyl)-3,5-dimethyl-1H-pyrazol-4-yl)-5-(4-(piperidin-4-yl)phenyl)-1H-pyrrolo[2,3-b]pyridine] | < 50 | 98 | 100
c1ccc(Cn2cc(-c3c[nH]c4ncc(-c5ccc(C6CCNCC6)cc5)cc34)cn2)nc1 [Example 93, 5-(4-(piperidin-4-yl)phenyl)-3-(1-(pyridin-2-ylmethyl)-1H-pyrazol-4-yl)-1H-pyrrolo[2,3-b]pyridine] | < 50 | 79 | 97
Cc1nn(Cc2cccc(F)c2)c(C)c1-c1c[nH]c2ncc(-c3cccc(NC4CCNCC4)c3)cc12 [Example 94, N-(3-(3-(1-(3-fluorobenzyl)-3,5-dimethyl-1H-pyrazol-4-yl)-1H-pyrrolo[2,3-b]pyridin-5-yl)phenyl)piperidin-4-amine] | < 50 | 98 | 100
c1ccc(CCn2cc(-c3c[nH]c4ncc(-c5cccc(NC6CCNCC6)c5)cc34)cn2)cc1 [Example 95, N-(3-(3-(1-phenethyl-1H-pyrazol-4-yl)-1H-pyrrolo[2,3-b]pyridin-5-yl)phenyl)piperidin-4-amine] | 50 to 250 | 83 | 99
Cc1nn(Cc2cccc(F)c2)c(C)c1-c1c[nH]c2ncc(-c3cccc(OC4CCNCC4)c3)cc12 [Example 96, 3-(1-(3-fluorobenzyl)-3,5-dimethyl-1H-pyrazol-4-yl)-5-(3-(piperidin-4-yloxy)phenyl)-1H-pyrrolo[2,3-b]pyridine] | < 50 | 70 | 100
c1ccc(CCn2cc(-c3c[nH]c4ncc(-c5cccc(OC6CCNCC6)c5)cc34)cn2)cc1 [Example 97, 3-(1-phenethyl-1H-pyrazol-4-yl)-5-(3-(piperidin-4-yloxy)phenyl)-1H-pyrrolo[2,3-b]pyridine] | < 50 | 76 | 98
c1ccc(CCn2cc(-c3c[nH]c4ncc(-c5cccc(CC6CCNCC6)c5)cc34)cn2)cc1 [Example 98, 3-(1-phenethyl-1H-pyrazol-4-yl)-5-(3-(piperidin-4-ylmethyl)phenyl)-1H-pyrrolo[2,3-b]pyridine] | 50 to 250 | 24 | 95
Cc1nn(Cc2cccc(F)c2)c(C)c1-c1c[nH]c2ncc(-c3cccc(CC4CCNCC4)c3)cc12 [Example 99, 3-(1-(3-fluorobenzyl)-3,5-dimethyl-1H-pyrazol-4-yl)-5-(3-(piperidin-4-ylmethyl)phenyl)-1H-pyrrolo[2,3-b]pyridine] | < 50 | 89 | 99
Fc1cccc(Cn2cc(-c3c[nH]c4ncc(-c5ccc(NC6CCNCC6)cc5)cc34)cn2)c1 [Example 100, N-(4-(3-(1-(3-fluorobenzyl)-1H-pyrazol-4-yl)-1H-pyrrolo[2,3-b]pyridin-5-yl)phenyl)piperidin-4-amine] | < 50 | 100 | 100
Cc1nn(Cc2cccc(F)c2)c(C)c1-c1c[nH]c2ncc(-c3ccc(NC4CCNCC4)cc3)cc12 [Example 101, N-(4-(3-(1-(3-fluorobenzyl)-3,5-dimethyl-1H-pyrazol-4-yl)-1H-pyrrolo[2,3-b]pyridin-5-yl)phenyl)piperidin-4-amine] | < 50 | 99 | 100
Fc1cccc(Cn2cc(-c3c[nH]c4ncc(-c5cccc(CC6CCNCC6)c5)cc34)cn2)c1 [Example 102, 3-(1-(3-fluorobenzyl)-1H-pyrazol-4-yl)-5-(3-(piperidin-4-ylmethyl)phenyl)-1H-pyrrolo[2,3-b]pyridine] | < 50 | 91 | 100
C[C@H](O)CN1CCC(c2ccc(-c3cnc4[nH]cc(-c5cnn(Cc6cccc(F)c6)c5)c4c3)cn2)CC1 [Example 102A, (S)-1-(4-(5-(3-(1-(3-fluorobenzyl)-1H-pyrazol-4-yl)-1H-pyrrolo[2,3-b]pyridin-5-yl)pyridin-2-yl)piperidin-1-yl)propan-2-ol] | < 50 | 91 | 94
NC(=O)CN1CCN(c2ccc(-c3cnc4[nH]cc(-c5cnn(Cc6cccc(F)c6)c5)c4c3)cc2)CC1 [Example 103, 2-(4-(4-(3-(1-(3-fluorobenzyl)-1H-pyrazol-4-yl)-1H-pyrrolo[2,3-b]pyridin-5-yl)phenyl)piperazin-1-yl)acetamide] | < 50 | 95 | 100
C[C@H](O)CN1CCN(c2ccc(-c3cnc4[nH]cc(-c5cnn(Cc6cccc(F)c6)c5)c4c3)cc2)CC1 [Example 104, (S)-1-(4-(4-(3-(1-(3-fluorobenzyl)-1H-pyrazol-4-yl)-1H-pyrrolo[2,3-b]pyridin-5-yl)phenyl)piperazin-1-yl)propan-2-ol] | < 50 | 98 | 100
Nc1cc(-c2cnc3[nH]cc(-c4cnn(Cc5cccc(F)c5)c4)c3c2)ccc1N1CCNCC1 [Example 105, 5-(3-(1-(3-fluorobenzyl)-1H-pyrazol-4-yl)-1H-pyrrolo[2,3-b]pyridin-5-yl)-2-(piperazin-1-yl) aniline] | < 50 | 98 | 100
CS(=O)(=O)Nc1cc(-c2cnc3[nH]cc(-c4cnn(Cc5cccc(F)c5)c4)c3c2)ccc1N1CCNCC1 [Example 106, N-(5-(3-(1-(3-fluorobenzyl)-1H-pyrazol-4-yl)-1H-pyrrolo[2,3-b]pyridin-5-yl)-2-(piperazin-1-yl)phenyl)methanesulfonamide hydrochloride] | < 50 | 97 | 100
